Assay results reported in patent US12509460B2 (Skyhawk Therapeutics, Inc., priority 2019, dated 2025).
Where two headings read alike, the source gives them in different places.

Experiments:
[1] = system: mHTT protein in GM04724 (CAG 70/20) Huntington's disease patient lymphoblast cells; experiment: mHTT protein assay, 2B7-MW1 assay via Mesoscale Discovery (MSD); assay type: cell-based, human
Procedure: Example A10: mHTT Protein Assay
Compounds are tested on GM04724 (CAG 70/20) Huntington's disease patient lymphoblast cells at doses ranging from 10 μM to 0.6 nM. 4,500 cells/well are seeded in 384 well plates. One plate replica is carried out for parallel viability testing by CellTiter Glo (CTG). Compounds are incubated for 48 hours. mHTT protein levels are assessed by the 2B7-MW1 assay via Mesoscale Discovery (MSD) as previously reported (Macdonald et al., 2014). The antibody pair is comprised of previously characterized monoclonals (2B7 and MW1) interrogating two regions for HTT conformation and biological properties: the N, 17 domain and the polyQ domain (Baldo et al., 2012; Ko et., 2001). 2B7-MW1 is […] specific levels of HTT at the time of treatment. 2B7-MW1 is dependent on polyQ expansion (e.g., the higher the expansion the higher the signal) and on mHTT size (e.g., a similar polyQ will give higher signal with smaller HTT size). The viability readout is carried out by CTG according to the manufacturer's instructions.

[2] = system: SMN protein in spinal muscular atrophy (SMA) patient fibroblasts (GM03813, Coriell); experiment: SMN protein assay, Mesoscale Discovery (MSD); assay type: cell-based, human; conditions: for EC50: read-out: SMN2 protein EC50
Procedure: Example A12: SMN Protein Assay
Compounds are tested on spinal muscular atrophy (SMA) patient fibroblasts (GM03813, Coriell) at doses ranging from 2.5 μM to 0.6 nM. 7000 cells/well are seeded in 96-well plates. Compounds are incubated for 48 hours and the cells were lysed with 100 μL of lysis buffer. 20 μL of lysate is used for SMN protein measurement by Mesoscale Discovery (MSD) assay developed by PharmOptima (Michigan). A standard curve prepared with SMN protein ranging from 1 μg/ml to 19.5 pg/ml is used in each MSD plate to calculate the absolute SMN protein amount in each sample.

[3] = system: MDR1; experiment: Blood-brain-barrier (BBB) penetration potential via MDCK-MDR1 permeability assay; conditions: dog, MDCK-MDR1, pH 7.4, MDCK-MDR1: Efflux
[4] = system: MDR1 (P-gp); experiment: as above; conditions: dog; for Papp A→B at 120 min, 5 μM: MDCK-MDR1, pH 7.4, MDCK-MDR1: Papp A-B; for Papp B→A at 120 min, 5 μM: MDCK-MDR1, pH 7.4, MDCK-MDR1: Papp B-A; for efflux ratio at 120 min, 5 μM: MDCK-MDR1, pH 7.4, MDCK-MDR1: Efflux
[5] = system: MDR1-MDCK cell monolayers; experiment: as above
[6] = GM04724 Huntington's disease patient lymphoblasts
[7] = SMA patient fibroblasts GM03813, 48 hours, MSD
[8] = GM04724 (CAG 70/20) Huntington's disease patient lymphoblasts
[9] = SMA patient fibroblasts (GM03813), 48 hours

SMILES	EC50 [2, 7] [nM]	efflux ratio at 120 min, 5 μM ([3]; efflux ratio)	Papp A→B at 120 min, 5 μM ([4]; A-B direction) [×10⁻⁶ cm/s]	Papp B→A at 120 min, 5 μM ([4]; B-A direction) [×10⁻⁶ cm/s]	MDCK-MDR1: % Recov A-B ([5]; A-B direction) [%]	MDCK-MDR1: % Recov B-A ([5]; B-A direction) [%]	EC50 [1, 6] [nM]	also measured
CC(=O)N(C)c1ccc(-c2ccc(N(C)[C@H]3C[C@@H]4CC[C@@H](N4)[C@H]3F)nn2)c(O)c1 [Compound 35B, N-(4-(6-(((1R,2R,3S,5S)-2-fluoro-8-azabicyclo[3.2.1]octan-3-yl)(methyl)amino)pyridazin-3-yl)-3-hydroxyphenyl)-N-methylacetamide]	0.01 to 15	181	0.23	42	103	99	–	mHTT protein EC50 [1, 6]: E (501 ≤ E ≤ 10.000)
CN(C)C(=O)c1cc2cc(O)c(-c3ccc(N(C4CC4)[C@H]4C[C@@H]5CC[C@@H](N5)[C@H]4F)nn3)cc2o1 [Compound 86B, 6-(6-(cyclopropyl((1R,2R,3S,5S)-2-fluoro-8-azabicyclo[3.2.1]octan-3-yl)amino)pyridazin-3-yl)-5-hydroxy-N,N-dimethylbenzofuran-2-carboxamide]	51 to 100	66	0.81	53.6	88	92	16 to 50	–
CN(c1ccc(-c2ccc(C#N)cc2O)nn1)[C@H]1C[C@@H]2CCC[C@@H](N2)[C@H]1F [Compound 39B, 4-(6-(((1R,2R,3S,5S)-2-fluoro-9-azabicyclo[3.3.1]nonan-3-yl)(methyl)amino)pyridazin-3-yl)-3-hydroxybenzonitrile]	16 to 50	9	4.57	40.6	96	86	101 to 500	–
CN(c1ccc(-c2cc3cnccc3cc2O)nn1)[C@H]1C[C@@H]2CC[C@H]([C@H]1F)N2C [Compound 93B, 7-(6-(((1R,2R,3S,5S)-2-fluoro-8-methyl-8-azabicyclo[3.2.1]octan-3-yl)(methyl)amino)pyridazin-3-yl)isoquinolin-6-ol]	51 to 100	4	5.39	22.3	45	63	101 to 500	–
CN(c1ccc(-c2ccc(-c3cnc(C#N)cn3)cc2O)nn1)[C@@H]1C[C@H]2CCC[C@H](N2)[C@@H]1F [Compound 28A, 5-(4-(6-(((1S,2S,3R,5R)-2-fluoro-9-azabicyclo[3.3.1]nonan-3-yl)(methyl)amino)pyridazin-3-yl)-3-hydroxyphenyl) pyrazine-2-carbonitrile]	–	20	1.41	28.4	40	61	16 to 50	SMN2 protein EC50 [2, 7]: E (501 ≤ E ≤ 10.000)
CN(c1ccc(-c2cc3ncn(C)c(=O)c3cc2O)nn1)[C@@H]1C[C@H]2CC[C@@H]([C@@H]1F)N2C [Compound 101A, 7-(6-(((1S,2S,3R,5R)-2-fluoro-8-methyl-8-azabicyclo[3.2.1]octan-3-yl)(methyl)amino)pyridazin-3-yl)-6-hydroxy-3-methylquinazolin-4(3H)-one]	–	–	–	–	–	–	–	EC50 [1, 8]: 101 to 500 nM; EC50 [2, 9]: 51 to 100 nM; efflux ratio at 120 min, 5 μM [3]: 26; Papp A→B at 120 min, 5 μM ([4]; A-B): 2.81 ×10⁻⁶ cm/s; Papp B→A at 120 min, 5 μM ([4]; B-A): 72.6 ×10⁻⁶ cm/s; MDCK-MDR1: % Recov A-B ([5]; A-B): 101%; MDCK-MDR1: % Recov B-A ([5]; B-A): 109%
CN(c1ccc(-c2ccc(C3=CCCC3)cc2O)nn1)[C@@H]1C[C@H]2CC[C@H](N2)[C@@H]1F [Compound 34A, 5-(cyclopent-1-en-1-yl)-2-(6-(((1S,2S,3R,5R)-2-fluoro-8-azabicyclo[3.2.1]octan-3-yl)(methyl)amino)pyridazin-3-yl)phenol]	16 to 50	2	0.63	1.05	8	55	101 to 500	–
Cc1nc2cc(-c3ccc(N(C)[C@H]4C[C@@H]5CC[C@@H](N5)[C@H]4F)nn3)c(O)cc2o1 [Compound 118B, 5-(6-(((1R,2R,3S,5S)-2-fluoro-8-azabicyclo[3.2.1]octan-3-yl)(methyl)amino)pyridazin-3-yl)-2-methylbenzo[d]oxazol-6-ol]	–	–	–	–	–	–	–	EC50 [1, 8]: 0.01 to 15 nM
CN(c1ccc(-c2ccc(-c3cnn(C(F)F)c3)cc2O)nn1)[C@H]1C[C@@H]2CCC[C@@H](N2)[C@H]1F [Compound 21B]	0.01 to 15	18	1.73	30.4	39	68	16 to 50	–
CN(c1ccc(-c2ccc(-c3cnn(C)c3)cc2O)nn1)[C@H]1C[C@H]2CC(F)(F)[C@H](C1)N2 (single isomer, unassigned) [Compound 3B]	101 to 500	–	16.3	22.7	80	71	51 to 100	efflux ratio at 120 min, 5 μM ([4]; efflux ratio): 1
CC#Cc1ccc(-c2ccc(N(C)C3CC4CCC(N4)C3F)nn2)c(O)c1 (single isomer, unassigned) [Compound 30B]	101 to 500	–	10.6	11	38	69	51 to 100	efflux ratio at 120 min, 5 μM ([4]; efflux ratio): 1
CN(c1ccc(-c2cc(F)c(-c3ccn(C)c(=O)c3)cc2O)nn1)[C@H]1C[C@@H]2CC(F)(F)[C@H](C1)N2 [Compound 22B, 4-(4-(6-(((1R,3S,5S)-6,6-difluoro-8-azabicyclo[3.2.1]octan-3-yl)(methyl)amino)pyridazin-3-yl)-2-fluoro-5-hydroxyphenyl)-1-methylpyridin-2(1H)-one]	51 to 100	31	2.83	87.7	88	95	–	–
CN(c1ccc(-c2cc3ccncc3cc2O)nn1)[C@@H]1C[C@H]2CC(F)(F)[C@@H](C1)N2 [Compound 125A, 6-(6-(((1S,3R,5R)-6,6-difluoro-8-azabicyclo[3.2.1]octan-3-yl)(methyl)amino)pyridazin-3-yl)isoquinolin-7-ol]	–	–	–	–	–	–	–	EC50 [1, 8]: 101 to 500 nM; EC50 [2, 9]: 51 to 100 nM; efflux ratio at 120 min, 5 μM [4]: 3; Papp A→B at 120 min, 5 μM ([4]; A-B): 14.1 ×10⁻⁶ cm/s; Papp B→A at 120 min, 5 μM ([4]; B-A): 43.3 ×10⁻⁶ cm/s; MDCK-MDR1: % Recov A-B ([5]; A-B): 63%; MDCK-MDR1: % Recov B-A ([5]; B-A): 87%
Cc1cnc(-c2ccc(-c3ccc(N(C)[C@@H]4C[C@H]5CC[C@H](N5)[C@@H]4F)nn3)c(O)c2)o1 [Compound 48A, 2-(6-(((1S,2S,3R,5R)-2-fluoro-8-azabicyclo[3.2.1]octan-3-yl)(methyl)amino)pyridazin-3-yl)-5-(5-methyloxazol-2-yl)phenol]	0.01 to 15	8	3.71	29	58	76	51 to 100	–
Cc1nc2cc(-c3ccc(N(C)[C@@H]4C[C@H]5CC[C@H](N5)[C@@H]4F)nn3)c(O)cc2o1 [Compound 118A, 5-(6-(((1S,2S,3R,5R)-2-fluoro-8-azabicyclo[3.2.1]octan-3-yl)(methyl)amino)pyridazin-3-yl)-2-methylbenzo[d]oxazol-6-ol]	–	–	–	–	–	–	–	EC50 [1, 8]: 16 to 50 nM
